What all share (format): cell-based
One experiment concerns cdc25c. In words: Western blot, G2/M checkpoint proteins. To be noted: HeLa, 0.5 μM. How it is done: (§1) Figure 6 Effects of 66 on G2/M checkpoint proteins. HeLa cells were treated with 0.1 or 0.5 μM compound 66 for 24 or 48 h. The cells were harvested and lysed for the detection of cdc25c, p-cdc2^Y15, and cyclin B expression by Western blot analysis. To confirm equal protein loading, each membrane was stripped and reprobed with anti-GAPDH antibody. The relative expression of proteins was analyzed by scanning densitometry using ImageJ software and reported as a ratio protein/GAPDH.
(§2) HeLa cells were incubated in the presence of the test compound and, after different times, were collected, centrifuged, and washed two times with ice cold PBS. The pellet was resuspended in lysis buffer. After the cells were lysed on ice for 30 min, lysates were centrifuged at 15 000g at 4 °C for 10 min. The protein concentration in the supernatant was determined using the BCA protein assay reagents (Pierce, Italy). Equal amounts of protein (10 μg) were resolved using sodium dodecyl sulfate–polyacrylamide gel electrophoresis (Criterion Precast, BioRad, Italy) and transferred to a PVDF Hybond-P membrane (GE Healthcare). Membranes were blocked with a bovine serum albumin solution (5% in Tween PBS 1×), and the membranes were gently rotated overnight at 4 °C in the albumin solution. Membranes were then incubated with primary antibodies against PARP cleaved fragment, cdc25c, cyclin B, p-cdc2^Tyr15, XIAP, and Mcl-1 (all from Cell Signaling) or GAPDH (Sigma-Aldrich) for 2 h at room temperature. Membranes were next incubated with peroxidase labeled secondary antibodies for 1 h. All membranes were visualized using ECL Select (GE Healthcare), and images were acquired using an Uvitec-Alliance imaging system (Uvitec, Cambridge, U.K.). To ensure equal protein loading, each membrane was stripped and reprobed with anti-GAPDH antibody. To obtain relative quantitative data, ImageJ software (NIH, USA) was used for scanning densitometry analysis of Western blots.
A general note: In western blotting, separated proteins are transferred to a membrane and probed.

For a further experiment, the system named is cyclin B1. In words: Western blot, G2/M checkpoint proteins. The note with it: HeLa, 24 h, 0.5 μM. How it is done:
as §1, §2

The subject of another experiment is phosphorylated cdc2. In words: Western blot, G2/M checkpoint proteins. The note with it: HeLa, after both 24 and 48 h. The method, then:
as §1, §2

Experiment [1] deals with HeLa cells. In words: Annexin-V/PI apoptosis assay. The method, then:
To analyze the mode of cell death induced by compound 66 in HeLa cells, we utilized a double labeling assay of the cells with annexin-V and PI. This procedure, through a flow cytometric analysis, distinguishes four different cell populations: live cells (annexin-V^–/PI^–), early apoptotic cells (annexin-V^+/PI^–), late apoptotic cells (annexin-V^+/PI^+), and necrotic cells (annexin-V^–/PI^+).
Cell death was determined by flow cytometry of cells double stained with annexin V/FITC and PI. The Coulter Cytomics FC500 (Beckman Coulter) was used to measure the surface exposure of phosphatidylserine on apoptotic cells according to the manufacturer’s instructions (Annexin-V Fluos, Roche Diagnostics).

The subject of experiment [2] is HeLa cells. In words: ROS production (H2-DCFDA). The note with it: 48 h, 0.5 μM. The method, then:
One consequence of mitochondrial depolarization caused by the release of cytochrome c into the cytoplasm is the increase in reactive oxygen species (ROS).[65] Therefore, we wanted to evaluate whether ROS production increased following treatment with compound 66. To do this, we used the fluorescent probe 2,7-dichlorodihydrofluorescein diacetate (H2-DCFDA), which is oxidized to the fluorescent compound dichlorofluorescein (DCF) upon ROS production.
The production of ROS was measured by flow cytometry using H2DCFDA (Molecular Probes), as previously described.[59] Briefly, after different times of treatment, cells were collected by centrifugation and resuspended in PBS containing H2DCFDA at the concentration of 0.1 μM. The cells were then incubated for 30 min at 37 °C, centrifuged, and resuspended in PBS. The fluorescence was directly recorded with the flow cytometer, using as excitation wavelength 488 nm and emission at 530 nm.

As to `CCOC(=O)c1cc2c(n1Cc1cc(OC)cc(OC)c1)-c1oncc1CCC2` [Compound 66, Ethyl 9-(3,5-Dimethoxybenzyl)-4,5,6,9-tetrahydropyrrolo[2′,3′:3,4]cyclohepta[1,2-d][1,2]oxazole-8-carboxylate], the “total cdc25c expression” value in the experiment on cdc25c was “strongly reduced”. In the experiment with cyclin B1, the “cyclin B1 expression” value is on record as “substantial increase”. For the same compound, the “expression of phosphorylated cdc2” value in the experiment on phosphorylated cdc2 is given as “strongly decreased”. In addition, the apoptotic cells result with HeLa cells [1] (24 h, 0.5 μM) is “significant increase”. For the same compound, in the experiment with HeLa cells [1] (48 h), the necrotic cells entry is reported as “substantial increase”. In the experiment with HeLa cells [2], the ROS production result was “induced the production of ROS”.

The values are drawn from publication PMC7901646, “Pyrrolo[2′,3′:3,4]cyclohepta[1,2-d][1,2]oxazoles, a New Class of Antimitotic Agents Active against Multiple Malignant Cell Types” (Journal of Medicinal Chemistry, 2020).
